Assay: ANTS/DPX dye leakage assay and equi-activity partitioning analysis
Settings: for K (mole fraction partitioning coefficient) / RB ([P]B/[L]) / [P]W (peptide concentration in the water phase): fit of Equation (4), [L] = (1−20) mM, [P] = (0.05−2) mM, HBS
Procedure: All hydrated samples were equilibrated for 1 h at 40°C followed by 5 freeze-and-thaw cycles using liquid N2 and intermittent vortex-mixing. Large unilamellar vesicles (LUVs) were obtained by 31 extrusions with a handheld mini extruder (Avanti Polar Lipids, Alabaster, AL) using a 100 nm pore diameter polycarbonate filter. Vesicle size and polydispersity were determined via DLS using a Zetasizer NANO ZSP (Malvern Panalytical, Malvern, UK). ANTS/DPX-containing vesicles were separated from free ANTS/DPX by exclusion chromatography using a column filled with SephadexTM G-75 (Amersham Biosciences, Little Chalfont, UK) fine gel swollen in iso-osmotic HBS. Phospholipid concentrations for all samples were determined by phosphate analysis.
Dye leakage experiments were performed combining previously reported protocols ([20], [27]). […] Similar time protocols were applied previously ([27]) and are justified here based on separate time-resolved leakage experiments (Supplementary Figure 3) and Trp-fluorescence measurements (Figure 3), showing that a quasi steady state has been reached after 1 h. Before measurements, lipid/peptide solutions were diluted with HBS to a lipid concentration of 50 μM, and every measurement was repeated at least twice. Vesicle size was checked after each incubation period using DLS. Samples were excited at λ= 360 nm, and the intensity of the fluorescence emission peak at λ= 530 nm, Ip, was recorded with a slit width of 10 nm for both excitation and emission monochromators. Measurements were performed in quartz cuvettes in 2 ml of the iso-osmotic buffer on a Cary Eclipse Fluorescence Spectrophotometer (Varian/Agilent Technologies, Palo Alto, CA). The percentage of leakage, E%, was calculated according to the relation
(1) E%=Ip-Imin/Imax-Imin,
where Imin is the initial fluorescence without peptide, and Imax is the fluorescence corresponding to 100% leakage determined through the addition of a 1 vol% solution of Triton X-100. The initial, monotonic increase of E% values with increasing [P] was interpolated with a sigmoidal function. This enabled us to obtain peptide and lipid concentrations leading to a specific E% value, which can in turn be used to calculate the partitioning parameters (see section 2.3.1).
(4) [P]=RB[W]/K︸[P]W+RB[L]︸[P]B=RB([W]/K+[L]),

[1] = POPG LUVs, leakage 10%, 1 h at 37°C
[2] = POPG LUVs, leakage 20%, 1 h at 37°C
[3] = POPG LUVs, leakage 40%, 1 h at 37°C

H-FWRIRIRR-NH2 [LF11-215, H-FWRIRIRR-NH2]
K (mole fraction partitioning coefficient) [1]: 2.4 ± 0.7 ×10^4
RB ([P]B/[L]) [1]: 36 ± 4 ×10^−3
[P]W (peptide concentration in the water phase) [1]: 0.08 ± 0.03 mM
K (mole fraction partitioning coefficient) [2]: 4.2 ± 0.4 ×10^4
RB ([P]B/[L]) [2]: 55.9 ± 1.6 ×10^−3
[P]W (peptide concentration in the water phase) [2]: 0.073 ± 0.009 mM
K (mole fraction partitioning coefficient) [3]: 5.4 ± 1.4 ×10^4
RB ([P]B/[L]) [3]: 72 ± 6 ×10^−3
[P]W (peptide concentration in the water phase) [3]: 0.08 ± 0.03 mM
ANTS/DPX leakage, maximum reached (sigmoidal increase up to) (POPG LUVs, 1 h at 37°C, increasing [P]): ≤ 100%
fraction of peptides partitioned into the lipid phase (POPG, at [L] ≃20 mM): > 90%
